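Assay format: 96-well plates, 48-hour exposure. GI50: concentration for 50% inhibition of growth.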 Activity calls are given as the source filed them. No stated cut-off is given here; in the data, active = GI50 up to about 1.1 µM and inactive = higher.

The results in this text go back to ChEMBL document CHEMBL1201862, “PubChem BioAssay data set” (2004).

Common to all, as to assay: NCI tumour cell line growth inhibition, 48 h
Assay [1] concerns 786-0.
Assay [2] has as its system CCRF-CEM.
For assay [3], the system named is HCT-116.
Assay [4] has as its system HL-60.
The subject of assay [5] is HOP-62.
Assay [6] has as its system HT-29.
For assay [7], the system named is Hs-578T.
The test system of assay [8] is LOX IMVI.
Assay [9] relates to MDA-MB-231.
The subject of assay [10] is NCI-H460.
For assay [11], the system named is NCI/ADR-RES.
The subject of assay [12] is OVCAR-4.
Assay [13] relates to PC-3.
For assay [14], the system named is SN12C.
In assay [15] the test system is SNB-19.
Assay [16] concerns SR.
Assay [17] concerns TK-10.
The test system of assay [18] is UACC-257.
Assay [19] deals with MDA-N.

With `Clc1ccc2c(SCC3CO3)c3ccccc3nc2c1` (centres undefined), the GI50 is 1.81 µM (inactive) in assay [1]; 2.43 µM (inactive) in assay [2]; 1.66 µM (inactive) in [3]; 1.04 µM (active) in assay [4]; 6.25 µM (inactive) in [5]; 1.64 µM (inactive) in [6]. Also, the GI50 is 2.72 µM (inactive) in assay [7]; 2.25 µM (inactive) in [8]; 2.33 µM (inactive) in [9]; 4.27 µM (inactive) in [10]; 2.43 µM (inactive) in assay [11]; 3.87 µM (inactive) in assay [12]. The GI50 in [13] is 2.65 µM (inactive); in assay [14], 2.02 µM (inactive); in assay [15] it was 5.43 µM (inactive); in [16], 2.04 µM (inactive); in assay [17], 1.74 µM (inactive); in assay [18] it was 2.49 µM (inactive).

Turning to `Cc1cccc(/N=N/C(=O)NNc2cccc(C)c2C)c1C`, the GI50 in assay [1] was 35.2 µM (inactive); in assay [2] it was > 10 µM (inactive); in assay [3] it was 29.4 µM (inactive); in assay [4] it was 24.5 µM (inactive); in assay [5] it was 20.7 µM (inactive); in assay [6], 56.9 µM (inactive). For the same molecule, the GI50 in [8] is 25.8 µM (inactive); in assay [9], 47.5 µM (inactive); in assay [19] it was 36.3 µM (inactive); in assay [10] it was 38.5 µM (inactive); in assay [12] it was 30.8 µM (inactive); in assay [13], 31.5 µM (inactive). Further, the GI50 was 53.1 µM (inactive) in assay [14]; 45.8 µM (inactive) in [15]; 33.2 µM (inactive) in assay [16]; 37.7 µM (inactive) in [17]; 34.7 µM (inactive) in assay [18].

Turning to `[O-][S+](Cc1ccccc1)c1ccccc1Cn1cccc1` (centres undefined), the GI50 in assay [1], in assay [2], in assay [3], in assay [4], in assay [5] and in assay [6] was > 100 µM (inactive) throughout. The GI50 is > 100 µM (inactive) in assay [7]; > 100 µM (inactive) in [8]; > 100 µM (inactive) in [9]; > 100 µM (inactive) in [10]; > 100 µM (inactive) in [11]; 41.9 µM (inactive) in assay [12]. The GI50 in assay [13] is > 100 µM (inactive); in assay [14], > 100 µM (inactive); in [15] it was > 100 µM (inactive); in [16] it was 23 µM (inactive); in assay [17] it was > 100 µM (inactive); in assay [18], > 100 µM (inactive).

Consider `O=C1C=C/C(=N/c2ccccc2)c2ccccc21`, for which the GI50 is 12.3 µM (inactive) in [1]; 4.29 µM (inactive) in [2]; 12.1 µM (inactive) in assay [3]; 4.89 µM (inactive) in assay [4]; 11.2 µM (inactive) in assay [5]; 16.9 µM (inactive) in assay [6]. For the same molecule, the GI50 is 3.74 µM (inactive) in assay [7]; 4.18 µM (inactive) in assay [8]; 1.9 µM (inactive) in assay [9]; 3.32 µM (inactive) in assay [10]; 15.1 µM (inactive) in [11]; 11.9 µM (inactive) in [12]. Moreover, the GI50 in [13] is 10.5 µM (inactive); in [14] it was 12.8 µM (inactive); in assay [15] it was 21.8 µM (inactive); in [16], 11.4 µM (inactive); in assay [17], 16.9 µM (inactive); in assay [18] it was 2.64 µM (inactive).

Consider `O=C(O)C1(C(=O)O)CC1(C(=O)O)C(=O)O`, for which the GI50 in assay [1], in [2], in [3], in assay [4], in assay [5] and in assay [6] was > 100 µM (inactive) throughout. In addition, the GI50 in assay [7], in assay [8], in assay [9], in assay [10], in [11] and in assay [12] was > 100 µM (inactive) in each case. Moreover, the GI50 in [13], in assay [14], in assay [15], in [16], in [17] and in assay [18] was > 100 µM (inactive) each time.

Regarding `N/N=C(\N)SCCCCCCCCCCS/C(N)=N/N`, the GI50 was 31.5 µM (inactive) in assay [1]; 17.2 µM (inactive) in assay [2]; 26.8 µM (inactive) in [3]; 17.3 µM (inactive) in assay [4]; 40.5 µM (inactive) in assay [5]; 14.6 µM (inactive) in assay [6]. Further, the GI50 was 30.8 µM (inactive) in assay [7]; 11.5 µM (inactive) in assay [8]; 20.4 µM (inactive) in [9]; 15.9 µM (inactive) in assay [10]; 21.1 µM (inactive) in [11]; 34.6 µM (inactive) in [13]. The GI50 in [14] was 34.9 µM (inactive); in assay [15], 40.7 µM (inactive); in assay [16] it was 13.2 µM (inactive); in assay [17] it was 20.3 µM (inactive); in [18], 30.1 µM (inactive).

With `CN(C(=S)Cc1ccc(Cl)c(Cl)c1)C1CCCC[C@@H]1N1CCCC1` (some centres undefined), the GI50 in assay [1] was 21.9 µM (inactive); in [3], 48.1 µM (inactive); in assay [4], 28.5 µM (inactive); in [5] it was 54.2 µM (inactive); in assay [6] it was 16.7 µM (inactive); in assay [9] it was 34.4 µM (inactive). The GI50 was 17.8 µM (inactive) in [19]; 85.9 µM (inactive) in assay [11]; 84.9 µM (inactive) in [12]; 31.4 µM (inactive) in [13]; 63.7 µM (inactive) in [14]; > 100 µM (inactive) in [15]. For the same molecule, the GI50 in assay [17] is 27.9 µM (inactive).

`NCCCNOCCCN`: the GI50 in assay [1], in assay [3], in assay [5], in [6], in [9] and in [19] was > 100 µM (inactive) each time. In addition, the GI50 in assay [10], in [11], in assay [12], in [13], in [14] and in [15] was > 100 µM (inactive) in each case. The GI50 in assay [16] is 2.26 µM (inactive); in [17], > 100 µM (inactive).

For `CC(=O)OCc1ccc2c(c1)C(O)NC(=O)O2` (centres undefined), the GI50 in assay [1] is > 100 µM (inactive); in [2], 12.4 µM (inactive); in [3], 52.8 µM (inactive); in [4] it was > 100 µM (inactive); in [5], > 100 µM (inactive); in assay [6], > 100 µM (inactive). For the same molecule, the GI50 in assay [7] is 18.7 µM (inactive); in assay [8], 47.2 µM (inactive); in assay [9] it was > 100 µM (inactive); in assay [10], > 100 µM (inactive); in assay [11], > 100 µM (inactive); in assay [12] it was 93.1 µM (inactive). The GI50 in assay [13] is > 100 µM (inactive); in assay [14] it was 50.7 µM (inactive); in assay [15], > 100 µM (inactive); in assay [16] it was 10.4 µM (inactive); in assay [17], > 100 µM (inactive); in assay [18] it was > 100 µM (inactive).

In the case of `CC(=O)Oc1ccc(OC(Oc2ccccc2)c2ccccc2)cc1` (centres undefined), the GI50 is 23.8 µM (inactive) in assay [1]; 27.5 µM (inactive) in assay [2]; 24.9 µM (inactive) in assay [3]; 12.6 µM (inactive) in assay [4]; 36.2 µM (inactive) in [5]; 28.1 µM (inactive) in assay [6]. Further, the GI50 in [8] was 21.6 µM (inactive); in assay [9], 18.9 µM (inactive); in [19], 21.3 µM (inactive); in assay [10] it was 21.6 µM (inactive); in assay [11], 50.9 µM (inactive); in assay [12], 33.7 µM (inactive). The GI50 in assay [13] is 30 µM (inactive); in [14], 15 µM (inactive); in [15], 27.3 µM (inactive); in assay [16], 14.9 µM (inactive); in assay [17] it was 67.3 µM (inactive); in assay [18], 32.2 µM (inactive).

With `CC(C)(C)OC(=O)c1cnc(Cl)cn1`, the GI50 was > 100 µM (inactive) in [1]; 18.7 µM (inactive) in assay [2]; 33.6 µM (inactive) in assay [3]; > 100 µM (inactive) in [5]; 46.9 µM (inactive) in assay [6]; 35.2 µM (inactive) in [7]. Further, the GI50 was 23.8 µM (inactive) in assay [8]; 46.1 µM (inactive) in [9]; 49.7 µM (inactive) in assay [10]; 50 µM (inactive) in assay [11]; 28.1 µM (inactive) in assay [12]; 64.7 µM (inactive) in [13]. The GI50 in [14] was 31.8 µM (inactive); in assay [15] it was 95.3 µM (inactive); in assay [16], 45 µM (inactive); in assay [17], > 100 µM (inactive); in assay [18], 30.4 µM (inactive).

For `O=c1c(C(c2cc(OCc3ccccc3)cc(OCc3ccccc3)c2)c2c(O)oc3ccccc3c2=O)c(O)oc2ccccc12`, the GI50 in [1] was 8.63 µM (inactive); in assay [2] it was 2.42 µM (inactive); in [3] it was 3.39 µM (inactive); in assay [4], 2.51 µM (inactive); in [5], 10.3 µM (inactive); in assay [6], 4.15 µM (inactive). Also, the GI50 in assay [7] was 5.96 µM (inactive); in assay [8], 15.3 µM (inactive); in assay [9] it was 4.57 µM (inactive); in [10], 3.45 µM (inactive); in [11], 17.6 µM (inactive); in assay [12] it was 4.97 µM (inactive). Also, the GI50 in [13] was 4 µM (inactive); in assay [14], 3.71 µM (inactive); in [15], 3.74 µM (inactive); in assay [16], 3.28 µM (inactive); in assay [17] it was 11.5 µM (inactive); in [18], 13 µM (inactive).
